The text below walks through data of ChEMBL document CHEMBL4342527, “Discovery of Novel Fungal Lanosterol 14α-Demethylase (CYP51)/Histone Deacetylase Dual Inhibitors to Treat Azole-Resistant Candidiasis” (J Med Chem, 2020).

For assay [1], the system named is Candida albicans. The assay is described as follows: Antifungal activity against azole-sensitive Candida albicans SC5314 after 48 hrs by spectrophotometry-based serial microdilution method. It is filed as functional. (In general: Dilution methods test growth across graded concentrations, often in twofold steps.)
In assay [2] the test system is Candida albicans. The assay is described as follows: Antifungal activity against azole-resistant Candida albicans 0304103 after 48 hrs by spectrophotometry-based serial microdilution method. It is filed as functional. To be noted: Candida albicans, 0304103, 48 h.
Assay [3] concerns Candida albicans. The assay is described as follows: Antifungal activity against azole-resistant Candida albicans 7781 after 48 hrs by spectrophotometry-based serial microdilution method. To be noted: Candida albicans, 7781, 48 h. The format is functional.
The subject of assay [4] is Candida albicans. The assay is described as follows: Antifungal activity against azole-resistant Candida albicans 4108 after 48 hrs by spectrophotometry-based serial microdilution method. It is filed as functional. To be noted: Candida albicans, 4108, 48 h.
Another assay deals with Candida tropicalis. Briefly: Antifungal activity against azole-resistant Candida tropicalis 5008 after 48 hrs by spectrophotometry-based serial microdilution method. The format is functional. To be noted: Candida tropicalis, 5008, 48 h.
For a further assay, the system named is Cryptococcus neoformans. Briefly: Antifungal activity against azole-sensitive Cryptococcus neoformans H99 after 72 hrs by spectrophotometry-based serial microdilution method. The format is functional, var grubii H99.
Setting [5] is: Candida albicans, SC5314, 48 h, read-out: MIC80.
Where [6] appears, read: Cryptococcus neoformans, var grubii H99 , 72 h, read-out: MIC80.

≈ marks a conversion by molar mass, not a printed value.

For the molecule `CN(Cc1ccc(-n2cnn(CCCCCCCC(=O)NO)c2=O)cc1)CC(O)(Cn1cncn1)c1ccc(F)cc1F` (racemic), the MIC80 (usually an inhibitory concentration at the 80% level, which refers to growth in some studies and to a panel of isolates in others) in the assay on Candida albicans [1] (setting [5]) was 16 µg/mL (≈ 26.7 µM); with Candida albicans [2], 8 µg/mL (≈ 13.4 µM); with Candida albicans [3] it was 8 µg/mL (≈ 13.4 µM); with Candida albicans [4], 64 µg/mL (≈ 107 µM); against Candida tropicalis, 8 µg/mL (≈ 13.4 µM); in the assay on Cryptococcus neoformans (setting [6]), 2 µg/mL (≈ 3.34 µM).

In the case of `CN(Cc1ccc(-n2cnn(CCCCCC(=O)NO)c2=O)cc1)CC(O)(Cn1cncn1)c1ccc(F)cc1F` (racemic), the MIC80 in the assay on Candida albicans [1] (setting [5]) came to 32 µg/mL (≈ 56.1 µM); against Candida albicans [2], 16 µg/mL (≈ 28 µM); in the assay with Candida albicans [3], 32 µg/mL (≈ 56.1 µM); in the assay on Candida albicans [4], 64 µg/mL (≈ 112 µM); against Candida tropicalis, 64 µg/mL (≈ 112 µM); with Cryptococcus neoformans (setting [6]) it was 8 µg/mL (≈ 14 µM).

For `CN(Cc1ccc(-n2cnn(CCCCC(=O)NO)c2=O)cc1)CC(O)(Cn1cncn1)c1ccc(F)cc1F` (racemic), the MIC80 was 32 µg/mL (≈ 57.5 µM) with Candida albicans [1] (setting [5]); 64 µg/mL (≈ 115 µM) in the assay with Candida albicans [2]; over 64 µg/mL in the assay with Candida albicans [3]; over 64 µg/mL against Candida albicans [4]; over 64 µg/mL against Candida tropicalis; 64 µg/mL (≈ 115 µM) with Cryptococcus neoformans (setting [6]).

With `O=C(NO)c1ccc(OCCCc2ncnn2CC(O)(Cn2cncn2)c2ccc(F)cc2F)cc1` (racemic), the MIC80 is 64 µg/mL (≈ 128 µM) with Candida albicans [1] (setting [5]); 32 µg/mL (≈ 64.1 µM) in the assay with Candida albicans [2]; 8 µg/mL (≈ 16 µM) against Candida albicans [3]; 64 µg/mL (≈ 128 µM) in the assay on Candida albicans [4]; over 64 µg/mL against Candida tropicalis; 64 µg/mL (≈ 128 µM) in the assay on Cryptococcus neoformans (setting [6]).

For the molecule `O=C(NO)c1ccc(OCCCCc2ncn(CC(O)(Cn3cncn3)c3ccc(F)cc3F)n2)cc1` (racemic), the MIC80 was 4 µg/mL (≈ 7.79 µM) in the assay with Candida albicans [1] (setting [5]); over 64 µg/mL in the assay with Candida albicans [2]; 64 µg/mL (≈ 125 µM) with Candida albicans [3]; over 64 µg/mL in the assay on Candida albicans [4]; over 64 µg/mL in the assay with Candida tropicalis; 64 µg/mL (≈ 125 µM) with Cryptococcus neoformans (setting [6]).

Take `CN(Cc1ccc(-n2cnn(CCCCCCC(=O)NO)c2=O)cc1)CC(O)(Cn1cncn1)c1ccc(F)cc1F` (racemic): the MIC80 in the assay with Candida albicans [1] (setting [5]) came out at 64 µg/mL (≈ 109 µM); in the assay on Candida albicans [2], 16 µg/mL (≈ 27.4 µM); with Candida albicans [3], 32 µg/mL (≈ 54.7 µM); against Candida albicans [4] it was 64 µg/mL (≈ 109 µM); against Candida tropicalis it was 64 µg/mL (≈ 109 µM); with Cryptococcus neoformans (setting [6]), 8 µg/mL (≈ 13.7 µM).

`CN(Cc1ccc(-n2cnn(CCCC(=O)NO)c2=O)cc1)CC(O)(Cn1cncn1)c1ccc(F)cc1F` (racemic): the MIC80 is 8 µg/mL (≈ 14.7 µM) with Candida albicans [1] (setting [5]); 64 µg/mL (≈ 118 µM) against Candida albicans [2]; 32 µg/mL (≈ 59 µM) in the assay on Candida albicans [3]; 8 µg/mL (≈ 14.7 µM) against Candida albicans [4]; 8 µg/mL (≈ 14.7 µM) against Candida tropicalis; 2 µg/mL (≈ 3.69 µM) in the assay on Cryptococcus neoformans (setting [6]).

Consider `O=C(Cc1ccc(OCCCc2ncn(CC(O)(Cn3cncn3)c3ccc(F)cc3F)n2)cc1)NO` (racemic), for which the MIC80 in the assay on Candida albicans [1] (setting [5]) is 32 µg/mL (≈ 62.3 µM); against Candida albicans [2], 32 µg/mL (≈ 62.3 µM); against Candida albicans [3], 8 µg/mL (≈ 15.6 µM); with Candida albicans [4], over 64 µg/mL; with Candida tropicalis, 64 µg/mL (≈ 125 µM); with Cryptococcus neoformans (setting [6]) it was 32 µg/mL (≈ 62.3 µM).

As to `O=C(NO)c1ccc(OCCCCc2ncnn2CC(O)(Cn2cncn2)c2ccc(F)cc2F)cc1` (racemic), the MIC80 with Candida albicans [1] (setting [5]) is 32 µg/mL (≈ 62.3 µM); in the assay on Candida albicans [2], 32 µg/mL (≈ 62.3 µM); in the assay with Candida albicans [3], over 64 µg/mL; in the assay on Candida albicans [4], over 64 µg/mL; against Candida tropicalis, over 64 µg/mL; in the assay with Cryptococcus neoformans (setting [6]), 64 µg/mL (≈ 125 µM).

For `O=C(NO)c1ccc(OCCCc2ncn(CC(O)(Cn3cncn3)c3ccc(F)cc3F)n2)cc1` (racemic), the MIC80 in the assay with Candida albicans [1] (setting [5]) came out at 8 µg/mL (≈ 16 µM); against Candida albicans [2] it was 64 µg/mL (≈ 128 µM); against Candida albicans [3], 8 µg/mL (≈ 16 µM); against Candida albicans [4] it was 32 µg/mL (≈ 64.1 µM); against Candida tropicalis, 64 µg/mL (≈ 128 µM); in the assay with Cryptococcus neoformans (setting [6]), 64 µg/mL (≈ 128 µM).

For `O=C(Cc1ccc(OCCCc2ncnn2CC(O)(Cn2cncn2)c2ccc(F)cc2F)cc1)NO` (racemic), the MIC80 in the assay with Candida albicans [1] (setting [5]) is 8 µg/mL (≈ 15.6 µM); with Candida albicans [2] it was 32 µg/mL (≈ 62.3 µM); in the assay on Candida albicans [3] it was 16 µg/mL (≈ 31.2 µM); with Candida albicans [4], over 64 µg/mL; with Candida tropicalis, over 64 µg/mL; in the assay on Cryptococcus neoformans (setting [6]) it was 64 µg/mL (≈ 125 µM).

As to `O=C(CCCCCCC(=O)Nc1ccccc1)NO` [VORINOSTAT], the MIC80 in the assay with Candida albicans [1] and in the assay on Cryptococcus neoformans was over 64 µg/mL each time.
